Laboratory results taken from paper PMC7155212 (Journal of Enzyme Inhibition and Medicinal Chemistry, 2020).
Several values for one entry are separate records, joined by “and”; a condition that tells them apart may be missing. Equal values may be shown once.

Target: T1, MAO-B (Rattus norvegicus, UniProt P19643)
T1 construct: The crude enzyme was extracted from the liver of 200–250 g of Wistar rats; from tissue; host or cells: liver of Wistar rats (crude enzyme)
T1 sequence (P19643 1-520): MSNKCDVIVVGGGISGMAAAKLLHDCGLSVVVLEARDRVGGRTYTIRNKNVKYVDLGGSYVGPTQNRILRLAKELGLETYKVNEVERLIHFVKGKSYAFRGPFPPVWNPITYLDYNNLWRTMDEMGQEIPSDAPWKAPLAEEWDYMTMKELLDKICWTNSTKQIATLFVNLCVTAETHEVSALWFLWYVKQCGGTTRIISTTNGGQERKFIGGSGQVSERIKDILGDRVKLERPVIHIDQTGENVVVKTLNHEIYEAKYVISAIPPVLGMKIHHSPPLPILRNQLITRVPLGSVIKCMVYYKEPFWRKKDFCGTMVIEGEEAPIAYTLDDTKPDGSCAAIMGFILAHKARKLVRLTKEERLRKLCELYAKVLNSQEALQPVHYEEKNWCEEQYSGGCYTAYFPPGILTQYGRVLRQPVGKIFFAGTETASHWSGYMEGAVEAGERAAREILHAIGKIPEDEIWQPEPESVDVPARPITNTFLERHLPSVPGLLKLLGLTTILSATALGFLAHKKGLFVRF
Test: In vitro MAO inhibitory activity (Holt method, crude enzyme from rat liver)
Assay type: biochemical, Wistar rat
Details: rat liver crude enzyme, 4-(trifluoromethyl)benzylamine substrate, mean ± SD (n = 3); read-out: IC50 value MAO-B inhibitory activity
Method: The MAO inhibitory activity of the 3-arylbenzofuranone compounds was determined by the method of Holt et al.[17] with slight modifications. The crude enzyme was extracted from the liver of 200–250 g of Wistar rats according to literature methods[18]^,[19]. The crude enzyme protein content was determined by the Bradford method using a Bradford Protein Assay Kit (Beyotime). The assay was performed in 0.2 M potassium phosphate buffer pH 7.6 on 96-well plates in 240 μl total volume. The chromogenic solution containing 1 mM vanillic acid, 0.5 mM 4-aminoantipyrine, and 4 U/ml horseradish peroxidase in 0.2 M potassium phosphate buffer pH 7.6 was mixed anew for each measurement. 40 μL of enzyme solution and 40 μL of sample solution were added to a 96-well plate. The solution was then incubated at 37 °C for 20 min. 120 μL of the 4-(trifluoromethyl) benzylamine solution and 40 μL of the chromogenic solution were added subsequently and incubated at 37 °C for 90 min. The absorbance was measured at 490 nm using a microplate reader, and the inhibition rate of MAO and the IC50 value of each sample were calculated according to the formula. The control group replaced the sample solution with PBS (0.2 M, pH = 7.6), the positive control replaced the sample with the positive drug, and the blank group replaced the substrate with PBS, and each group was measured three times in parallel to average. Monoamine oxidase inhibitory effect (%) = [(AC – AB) – (AS – ASB )]/(AC – AB)×100% where AC is the absorbance of control group; AB is the absorbance of blank group; AS is the absorbance of sample group; ASB is the absorbance of sample blank group.

`COc1ccc2c(c1)OC(=O)C2c1ccc(OC)c(OC)c1OC` (stereo not drawn) [Compound 18, 6-Methoxy-3–(2′,3′,4′-trimethoxyphenyl)-benzofuranone] and `COc1ccc2c(c1)C(c1cc(OC)c(OC)c(OC)c1)C(=O)O2` (stereo not drawn) [Compound 15, 5-Methoxy-3–(3′,4′,5′-trimethoxyphenyl)-benzofuranone] are within 1.5-fold of each other in IC50: 180.3 ± 1.32 µM for the first, 215 ± 2.27 µM for the second.

Compared with `COc1cc(C2C(=O)Oc3cc(O)ccc32)cc(OC)c1OC` (stereo not drawn) [Compound 11, 6-Hydroxy-3–(3′,4′,5′-trimethoxyphenyl)-benzofuranone], `COc1cc2c(cc1O)C(c1cc(OC)c(OC)c(OC)c1)C(=O)O2` (stereo not drawn) [Compound 21, 5-Hydroxy-6-methoxy-3–(3′,4′,5′-trimethoxyphenyl)-benzofuranone] is higher in IC50: 38.6 ± 0.42 µM for the first, over 500 µM for the second.

Compared with `COc1ccc(C2C(=O)Oc3ccc(O)cc32)cc1` (stereo not drawn) [Compound 2, 5-Hydroxyl-3–(4′-methoxyphenyl)-benzofuranone], `COc1ccc(C2C(=O)Oc3cc(OC)c(O)cc32)cc1` (stereo not drawn) [Compound 7, 5-Hydroxy-6-methoxy-3–(4′-methoxyphenyl)-benzofuranone] is 6.2-fold higher in IC50: 14.7 ± 0.78 µM for the first, 91.13 ± 0.7 µM for the second.

Compared with `COc1ccc(C2C(=O)Oc3c2ccc(OC)c3O)cc1` (stereo not drawn) [Compound 8, 6-Methoxy-7-hydroxy-3–(4′-methoxyphenyl)-benzofuranone], `COc1ccc(C2C(=O)Oc3c2ccc(O)c3O)cc1` (stereo not drawn) [Compound 5, 6,7-Dihydroxy-3–(4′-methoxyphenyl)-benzofuranone] is 1.8-fold lower in IC50: 40.6 ± 1.92 µM for the first, 22.48 ± 0.22 µM for the second. The second is the more potent here.

Test system: not listed separately
Test: In vitro antioxidant activity (DPPH radical scavenging)
Details: DPPH free radical scavenging, 30 min at 37 °C, mean ± SD (n = 3)
Method: The assay provides an assessment of the antioxidant activity due to free radical scavenging by measuring hydrogen atom (or one electron) donating activity. DPPH is a purple stable free radical that is reduced to a yellow-coloured diphenylpicryl hydrazine by an antioxidant. The spectrophotometric assay was carried out as described by the literature method with a slight modification. 100 μL of a sample solution was added to 100 μL of DPPH solution. Following 30 min of incubation at 37 °C and protection from light, the absorbance at 517 nm was determined using a microplate reader. Each group was measured three times in parallel to average. IC50 values were calculated. The percentage of DPPH radical scavenging rate of the target compound is calculated as follows: DPPH free radical scavenging effect (%)=[A0 – (A1−A2)]/A0×100% where A0 is the absorbance of blank group; A1 is the absorbance of sample group; A2 is the absorbance of sample blank group.

Going from `COc1ccc2c(c1)OC(=O)C2c1ccc(OC)c(OC)c1OC` (stereo not drawn) [Compound 18, 6-Methoxy-3–(2′,3′,4′-trimethoxyphenyl)-benzofuranone] to `COc1ccc2c(c1)C(c1cc(OC)c(OC)c(OC)c1)C(=O)O2` (stereo not drawn) [Compound 15, 5-Methoxy-3–(3′,4′,5′-trimethoxyphenyl)-benzofuranone], the IC50 falls from 64.5 ± 1.29 µM to 32.6 ± 0.42 µM (2-fold). The second is the more potent here.

Going from `COc1cc(C2C(=O)Oc3cc(O)ccc32)cc(OC)c1OC` (stereo not drawn) [Compound 11, 6-Hydroxy-3–(3′,4′,5′-trimethoxyphenyl)-benzofuranone] to `COc1cc2c(cc1O)C(c1cc(OC)c(OC)c(OC)c1)C(=O)O2` (stereo not drawn) [Compound 21, 5-Hydroxy-6-methoxy-3–(3′,4′,5′-trimethoxyphenyl)-benzofuranone], the IC50 falls from 11.2 ± 0.24 µM to 5.35 ± 0.33 µM (2.1-fold). The second is the more potent here.

First: COc1ccc(C2C(=O)Oc3ccc(O)cc32)cc1 (stereo not drawn) [Compound 2, 5-Hydroxyl-3–(4′-methoxyphenyl)-benzofuranone]
Second: COc1ccc(C2C(=O)Oc3cc(OC)c(O)cc32)cc1 (stereo not drawn) [Compound 7, 5-Hydroxy-6-methoxy-3–(4′-methoxyphenyl)-benzofuranone]
The IC50 of the first is higher: over 100 µM for the first, 2.62 ± 0.21 µM for the second. The second is the more potent here.

`COc1ccc(C2C(=O)Oc3c2ccc(OC)c3O)cc1` (stereo not drawn) [Compound 8, 6-Methoxy-7-hydroxy-3–(4′-methoxyphenyl)-benzofuranone] and `COc1ccc(C2C(=O)Oc3c2ccc(O)c3O)cc1` (stereo not drawn) [Compound 5, 6,7-Dihydroxy-3–(4′-methoxyphenyl)-benzofuranone] are within 1.5-fold of each other in IC50: 5.96 ± 0.14 µM for the first, 5.51 ± 0.2 µM for the second.

Target: BChE from equine serum (Equus caballus, UniProt P81908)
Sequence (P81908 whole entry): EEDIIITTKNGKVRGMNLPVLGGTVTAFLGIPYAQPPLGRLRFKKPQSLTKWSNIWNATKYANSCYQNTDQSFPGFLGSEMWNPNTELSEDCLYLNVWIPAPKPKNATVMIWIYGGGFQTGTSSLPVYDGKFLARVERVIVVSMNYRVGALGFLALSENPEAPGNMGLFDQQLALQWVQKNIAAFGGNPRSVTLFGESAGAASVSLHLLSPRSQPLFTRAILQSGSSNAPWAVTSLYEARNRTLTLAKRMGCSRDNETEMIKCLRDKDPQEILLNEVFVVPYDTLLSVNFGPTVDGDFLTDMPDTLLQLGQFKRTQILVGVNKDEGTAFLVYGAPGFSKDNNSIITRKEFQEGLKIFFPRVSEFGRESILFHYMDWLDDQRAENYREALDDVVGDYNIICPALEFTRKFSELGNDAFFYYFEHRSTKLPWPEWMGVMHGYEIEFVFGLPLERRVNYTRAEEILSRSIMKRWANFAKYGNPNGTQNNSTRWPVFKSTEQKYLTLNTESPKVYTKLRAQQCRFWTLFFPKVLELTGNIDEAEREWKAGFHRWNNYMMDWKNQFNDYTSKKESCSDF
Test: biochemical
Assay type: biochemical
Details: equine serum BChE, Ellman method, mean ± SD (n = 3); read-out: IC50 value BuChE inhibitory activity
Method: (§1) The anticholinesterase activity of the 3-arylbenzofuranone compounds was determined by the method of Ellman et al.[16] with slight modifications. […] Acetylthiocholine iodide and butyrylthiocholine iodide were used as substrates respectively. 5,5′-Dithiobis(2-nitrobenzoic acid) (DTNB) was used as the chromophoric reagent. To a 96-well plate, 120 µL of phosphate buffer solution (0.1 M, pH = 8.0, PBS), 20 µL of DTNB (3.3 mM in 0.1 M PBS, pH = 8.0) were added sequentially, 20 µL AChE solution (0.2 U/mL in 0.1 M PBS, pH = 8.0), 20 µL of different concentrations of the sample solution, shaken well, and incubated at 37 °C for 5 min. Then, 20 µL of substrate (5 mM in 0.1 M PBS, pH = 8.0) were added, shaken well, and incubated at 37 °C for 20 min. […] BChE inhibitory activity was assessed similarly using butyrylthiocholine iodide as the substrate. The sample solution was set to five concentration gradients and the experiment was repeated three times. […] Cholinesterase inhibitory effect (%)=[A0−(A1−A2)]/A0×100% where A0 is the absorbance of blank group; A1 is the absorbance of sample group; A2 is the absorbance of sample blank group.

`COc1ccc2c(c1)OC(=O)C2c1ccc(OC)c(OC)c1OC` (stereo not drawn) [Compound 18, 6-Methoxy-3–(2′,3′,4′-trimethoxyphenyl)-benzofuranone] and `COc1ccc2c(c1)C(c1cc(OC)c(OC)c(OC)c1)C(=O)O2` (stereo not drawn) [Compound 15, 5-Methoxy-3–(3′,4′,5′-trimethoxyphenyl)-benzofuranone] cannot be ordered by IC50: over 200 µM for the first, over 200 µM for the second.

First: COc1cc(C2C(=O)Oc3cc(O)ccc32)cc(OC)c1OC (stereo not drawn) [Compound 11, 6-Hydroxy-3–(3′,4′,5′-trimethoxyphenyl)-benzofuranone]
Second: COc1cc2c(cc1O)C(c1cc(OC)c(OC)c(OC)c1)C(=O)O2 (stereo not drawn) [Compound 21, 5-Hydroxy-6-methoxy-3–(3′,4′,5′-trimethoxyphenyl)-benzofuranone]
The IC50 of the first is higher: over 200 µM for the first, 146 ± 3.05 µM for the second.

`COc1ccc(C2C(=O)Oc3c2ccc(OC)c3O)cc1` (stereo not drawn) [Compound 8, 6-Methoxy-7-hydroxy-3–(4′-methoxyphenyl)-benzofuranone] and `COc1ccc(C2C(=O)Oc3c2ccc(O)c3O)cc1` (stereo not drawn) [Compound 5, 6,7-Dihydroxy-3–(4′-methoxyphenyl)-benzofuranone] cannot be ordered by IC50: over 200 µM for the first, over 200 µM for the second.

In the case of `COc1ccc(C2C(=O)Oc3cc(OC)c(O)cc32)cc1` (stereo not drawn) [Compound 7, 5-Hydroxy-6-methoxy-3–(4′-methoxyphenyl)-benzofuranone], the IC50 is reported as 32.9 ± 0.76 µM.

Target: AChE from electric eel (Electrophorus electricus, UniProt O42275)
Sequence (O42275 24-633): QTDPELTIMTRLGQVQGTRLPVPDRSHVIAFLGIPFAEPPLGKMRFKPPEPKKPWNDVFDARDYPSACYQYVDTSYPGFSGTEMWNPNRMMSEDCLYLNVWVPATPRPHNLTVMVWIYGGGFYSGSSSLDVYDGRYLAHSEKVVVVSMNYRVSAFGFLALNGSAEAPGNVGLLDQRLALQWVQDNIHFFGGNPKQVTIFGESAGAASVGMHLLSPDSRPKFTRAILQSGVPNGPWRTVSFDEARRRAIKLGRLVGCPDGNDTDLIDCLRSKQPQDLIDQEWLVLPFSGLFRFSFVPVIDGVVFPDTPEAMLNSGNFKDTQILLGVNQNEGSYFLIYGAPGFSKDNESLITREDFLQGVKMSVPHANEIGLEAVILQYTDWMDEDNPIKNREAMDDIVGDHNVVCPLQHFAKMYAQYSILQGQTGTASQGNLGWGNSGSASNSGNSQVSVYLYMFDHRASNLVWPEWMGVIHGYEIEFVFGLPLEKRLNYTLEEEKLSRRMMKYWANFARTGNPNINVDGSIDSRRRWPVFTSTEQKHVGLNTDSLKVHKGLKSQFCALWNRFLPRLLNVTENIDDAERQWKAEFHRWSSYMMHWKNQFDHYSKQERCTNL
Test: biochemical
Assay type: biochemical
Details: Ellman method, mean ± SD (n = 3), read-out: IC50 value AChE inhibitory activity
Method: as §1

In order of rising IC50:
1. COc1cc2c(cc1O)C(c1cc(OC)c(OC)c(OC)c1)C(=O)O2 (stereo not drawn) [Compound 21, 5-Hydroxy-6-methoxy-3–(3′,4′,5′-trimethoxyphenyl)-benzofuranone]  2.38 ± 0.2 µM
2. COc1ccc2c(c1)C(c1cc(OC)c(OC)c(OC)c1)C(=O)O2 (stereo not drawn) [Compound 15, 5-Methoxy-3–(3′,4′,5′-trimethoxyphenyl)-benzofuranone]  2.54 ± 0.19 µM
3. COc1ccc(C2C(=O)Oc3ccc(O)cc32)cc1 (stereo not drawn) [Compound 2, 5-Hydroxyl-3–(4′-methoxyphenyl)-benzofuranone]  4.15 ± 1.02 µM
4. COc1ccc(C2C(=O)Oc3c2ccc(OC)c3O)cc1 (stereo not drawn) [Compound 8, 6-Methoxy-7-hydroxy-3–(4′-methoxyphenyl)-benzofuranone]  9.24 ± 0.62 µM
5. COc1cc(C2C(=O)Oc3cc(O)ccc32)cc(OC)c1OC (stereo not drawn) [Compound 11, 6-Hydroxy-3–(3′,4′,5′-trimethoxyphenyl)-benzofuranone]  48.24 ± 0.34 µM
6. COc1ccc2c(c1)OC(=O)C2c1ccc(OC)c(OC)c1OC (stereo not drawn) [Compound 18, 6-Methoxy-3–(2′,3′,4′-trimethoxyphenyl)-benzofuranone]  124 ± 2.17 µM

In the case of `COc1ccc(C2C(=O)Oc3cc(OC)c(O)cc32)cc1` (stereo not drawn) [Compound 7, 5-Hydroxy-6-methoxy-3–(4′-methoxyphenyl)-benzofuranone], the IC50 is reported as < 1 µM and 0.52 µM.
